Test results as given in ChEMBL document CHEMBL5385847, “Design, synthesis and biological evaluation of a new class of 7H-pyrrolo[2,3-d]pyrimidine derivatives as Mps1 inhibitors for the treatment of breast cancer” (Eur J Med Chem, 2023).
Activity calls are given as the source filed them. No cut-off for these calls is given here.

These compounds were tested on 4T1-Luc (assay: Antitumor activity against mouse 4T1-Luc cells xenografted in BALB/C mouse assessed as delay in tumor growth at 10 mg/kg, ip dosed once a week for 15 days). Conditions: time 15.0 day.
Type: functional, organism-based
With `CC(=O)O[C@H]1C(=O)[C@@]2(C)[C@H]([C@H](OC(=O)c3ccccc3)[C@]3(O)C[C@H](OC(=O)[C@H](O)[C@@H](NC(=O)c4ccccc4)c4ccccc4)C(C)=C1C3(C)C)[C@]1(OC(C)=O)CO[C@@H]1C[C@@H]2O` the Activity was “Active”.

The compounds below were run on 4T1 (assay: Induction of apoptosis in 4T1 cells assessed as necrotic cells at 5 uM incubated for 48 hrs by Annexin V-FITC/PI staining based flow cytometry (reference value: 0.20 %)). Conditions: not given.
Type: functional, Mus musculus
In the case of `Cc1cc(N2CCOCC2)ccc1Nc1nc(NC2CCCCC2)c2nc[nH]c2n1`, the Activity is reported as 0.54%.

The compounds below were run on 4T1 (assay: Induction of apoptosis in 4T1 cells assessed as late apoptotic cells at 5 uM incubated for 48 hrs by Annexin V-FITC/PI staining based flow cytometry (reference value: 1.73 %)). Conditions: not given.
Type: functional, Mus musculus
In the case of `Cc1cc(N2CCOCC2)ccc1Nc1nc(NC2CCCCC2)c2nc[nH]c2n1`, the Activity is reported as 9.86%.

These compounds were tested on 4T1 (assay: Induction of apoptosis in 4T1 cells assessed as early apoptotic cells at 5 uM incubated for 48 hrs by Annexin V-FITC/PI staining based flow cytometry (reference value: 0.32 %)). Conditions: not given.
Type: functional, Mus musculus
Work on `Cc1cc(N2CCOCC2)ccc1Nc1nc(NC2CCCCC2)c2nc[nH]c2n1` yielded an Activity of 1.56%.

What follows are compounds tested on MCF7 (assay: Induction of apoptosis in human MCF7 cells assessed as necrotic cells at 5 uM incubated for 48 hrs by Annexin V-FITC/PI staining based flow cytometry (reference value: 0.03 %)). Conditions: not given.
Type: functional
With `Cc1cc(N2CCOCC2)ccc1Nc1nc(NC2CCCCC2)c2nc[nH]c2n1` the Activity was 0.35%.

These compounds were tested on MCF7 (assay: Induction of apoptosis in human MCF7 cells assessed as late apoptotic cells at 5 uM incubated for 48 hrs by Annexin V-FITC/PI staining based flow cytometry (reference value: 0.63 %)). Conditions: not given.
Type: functional
`Cc1cc(N2CCOCC2)ccc1Nc1nc(NC2CCCCC2)c2nc[nH]c2n1` was tested, and the Activity was 4.31%.

Each compound was assayed on MCF7 (assay: Induction of apoptosis in human MCF7 cells assessed as early apoptotic cells at 5 uM incubated for 48 hrs by Annexin V-FITC/PI staining based flow cytometry (reference value: 1.19 %)). Conditions: not given.
Type: functional
With `Cc1cc(N2CCOCC2)ccc1Nc1nc(NC2CCCCC2)c2nc[nH]c2n1` the Activity was 5.46%.

The compounds below were run against T1, Dual specificity protein kinase TTK (Homo sapiens, UniProt P33981) (assay: Inhibition of Mps1 (unknown origin) incubated for 120 mins in presence of substrate/ATP by ADP-Glo assay). Conditions: not given.
T1 sequence (P33981 whole entry): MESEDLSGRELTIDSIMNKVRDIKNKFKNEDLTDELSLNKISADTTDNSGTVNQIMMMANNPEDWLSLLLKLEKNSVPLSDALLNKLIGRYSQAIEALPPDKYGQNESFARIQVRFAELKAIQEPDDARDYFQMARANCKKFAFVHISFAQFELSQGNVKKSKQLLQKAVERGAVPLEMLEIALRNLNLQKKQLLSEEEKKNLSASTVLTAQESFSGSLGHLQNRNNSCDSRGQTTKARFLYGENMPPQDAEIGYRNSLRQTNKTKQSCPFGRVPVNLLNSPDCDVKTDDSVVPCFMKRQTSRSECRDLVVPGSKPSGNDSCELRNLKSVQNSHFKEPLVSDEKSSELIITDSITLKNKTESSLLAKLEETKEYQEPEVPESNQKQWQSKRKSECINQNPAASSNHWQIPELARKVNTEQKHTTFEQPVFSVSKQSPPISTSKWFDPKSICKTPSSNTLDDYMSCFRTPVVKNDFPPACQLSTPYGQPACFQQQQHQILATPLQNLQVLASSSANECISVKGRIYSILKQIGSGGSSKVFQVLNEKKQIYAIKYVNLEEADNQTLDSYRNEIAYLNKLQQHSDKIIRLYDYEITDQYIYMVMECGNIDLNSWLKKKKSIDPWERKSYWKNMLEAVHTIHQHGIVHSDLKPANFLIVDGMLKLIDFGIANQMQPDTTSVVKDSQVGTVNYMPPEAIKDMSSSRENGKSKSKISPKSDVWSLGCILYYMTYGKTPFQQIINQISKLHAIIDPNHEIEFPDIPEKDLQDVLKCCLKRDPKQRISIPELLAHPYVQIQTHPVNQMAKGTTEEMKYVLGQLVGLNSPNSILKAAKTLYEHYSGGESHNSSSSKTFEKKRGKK
For `Nc1nn(-c2nc(Nc3ccccc3OC(F)(F)F)nc3[nH]ccc23)c2ccccc12`, the IC50 was 0.154 µM.
For `Nc1nn(-c2nc(Nc3ccccc3)nc3[nH]ccc23)c2ccccc12`, the IC50 was 0.106 µM.
Work on `COc1cc(N2CCOCC2)ccc1Nc1nc(-n2cnc3ccccc32)c2cc[nH]c2n1` yielded an IC50 of 0.04 µM.
`CN1CCN(c2ccc(Nc3nc(-c4cnn(C)c4)c4cc[nH]c4n3)cc2)CC1` showed an IC50 of 0.067 µM.
`COc1cc(N2CCOCC2)ccc1Nc1nc(-n2nc(N)c3ccccc32)c2cc[nH]c2n1` gave an IC50 of 0.033 µM.
`COc1ccccc1Nc1nc(-n2nc(N)c3ccccc32)c2cc[nH]c2n1` gave an IC50 of 0.051 µM.
Work on `c1ccc2c(c1)ncn2-c1nc(Nc2ccc(N3CCOCC3)cc2)nc2[nH]ccc12` yielded an IC50 of 0.047 µM.
Work on `CCc1ccccc1Nc1nc(-n2nc(N)c3ccccc32)c2cc[nH]c2n1` yielded an IC50 of 0.338 µM.
`CN1CCN(c2ccc(Nc3nc(-n4ccc5ccccc54)c4cc[nH]c4n3)cc2)CC1` showed an IC50 of 0.137 µM.
Work on `CCN1CCN(c2ccc(Nc3nc(-n4nc(N)c5ccccc54)c4cc[nH]c4n3)cc2)CC1` yielded an IC50 of 0.032 µM.
`COc1cc(N2CCOCC2)ccc1Nc1nc(-n2ccc3cnccc32)c2cc[nH]c2n1` was tested, and the IC50 was 0.154 µM.
With `c1ccc2c(c1)ccn2-c1nc(Nc2ccc(N3CCOCC3)cc2)nc2[nH]ccc12` the IC50 was 0.144 µM.
Work on `CN1CCN(c2ccc(Nc3nc(-n4cnc5ccccc54)c4cc[nH]c4n3)cc2)CC1` yielded an IC50 of 0.083 µM.
Work on `CN1CCN(c2ccc(Nc3nc(-n4ccc5cnccc54)c4cc[nH]c4n3)cc2)CC1` yielded an IC50 of 0.149 µM.
In the case of `CN1CCN(c2ccc(Nc3nc(-n4nc(N)c5ccccc54)c4cc[nH]c4n3)cc2Cl)CC1`, the IC50 is reported as 0.05 µM.
For `CN1CCN(c2ccc(Nc3nc(-n4nc(N)c5ccccc54)c4cc[nH]c4n3)cc2F)CC1`, the IC50 was 0.035 µM.
In the case of `Nc1nn(-c2nc(Nc3ccccc3F)nc3[nH]ccc23)c2ccccc12`, the IC50 is reported as 0.054 µM.
`COc1cc(N2CCOCC2)ccc1Nc1nc(-n2ccc3ccccc32)c2cc[nH]c2n1` showed an IC50 of 0.132 µM.
In the case of `Nc1nn(-c2nc(Nc3ccccc3Cl)nc3[nH]ccc23)c2ccccc12`, the IC50 is reported as 0.068 µM.
Work on `Cc1cc(N2CCN(C)CC2)ccc1Nc1nc(-n2nc(N)c3ccccc32)c2cc[nH]c2n1` yielded an IC50 of 0.041 µM.
With `c1cc2c(ccn2-c2nc(Nc3ccc(N4CCOCC4)cc3)nc3[nH]ccc23)cn1` the IC50 was 0.464 µM.
`Cn1cc(-c2nc(Nc3ccc(N4CCOCC4)cc3)nc3[nH]ccc23)cn1` was tested, and the IC50 was 0.049 µM.
Work on `Nc1nn(-c2nc(Nc3ccc(N4CCOCC4)cc3)nc3[nH]ccc23)c2ccccc12` yielded an IC50 of 0.049 µM.
`COc1cc(N2CCOCC2)ccc1Nc1nc(-c2cnn(C)c2)c2cc[nH]c2n1` showed an IC50 of 0.034 µM.
